From patent publication US7638516B2, “Agent for therapeutic treatment of optic nerve diseases and the like” (Mei Co., Ltd., priority 2000, dated 2009)

Tested on: retinal degeneration induced by transient retinal ischemia
Experiment: Suppressing effect on retinal degeneration in transient retinal ischemia
Assay type: in vivo, Wister male rats
Conditions: rat, 3 mg/kg into the caudal vein immediately before and after ocular hypertension treatment (IOP 130 mmHg, 50 minutes); 7 days after treatment; p<0.01 relative to control
Description: Wister male rats (body weight of about 200 g) were used. Each animal was subjected to sufficient warming treatment by using a thermal plate under anesthesia, and the head was fixed by using a stereotaxic apparatus. In order to induce transient retinal ischemia, IOP was maintained at 130 mmHg for 50 minutes by injecting intraocular irrigating solution into the anterior chamber via the cornea using an infusion tube and 30 G injection needle which were connected to a bottle held at 174 cm above the eyes (ocular hypertension treatment) according to the method of Akaike (Folia Pharmacologica Japonica, 111, pp. 97-104 (1998)). The ocular hypertension treatment was performed only on the right eye, and the left eye was left untreated. Immediately before and after the ocular hypertension treatment, a physiological saline solution or a dose of 3 mg/kg of MCI-186 was injected to the caudal vein. […] That is, a light-microscopic section of the retina was prepared 7 days after the ocular hypertension treatment, and the thickness of the retina was measured under microscope by using a micrometer (thickness from inner plexiform layer to inner nuclear layer). […] 7 days after the ocular hypertension treatment. Data represent means±SEM. As for the number of animals, the control group consisted of 10 rats, and the MCI-186 group consisted of 11 rats. […]

## CC1=NN(c2ccccc2)C(=O)C1 [MCI-186, 3-methyl-1-phenyl-2-pyrazolin-5-one]
  retinal degeneration induced by transient retinal ischemia (retinal thickness ratio, ocular hypertension treated eye/normal eye): significantly suppressed
